Experimental data taken from patent US10792377B2, “Compounds and method for imaging cancer” (Vanderbilt University, priority 2017, dated 2020).
Read-outs that look alike come from different tables or passages of the source.

Experiments:
ovine COX-1 = molecular target: T1, ovine COX-1 (Ovis aries, UniProt P05979); assay: In vitro purified COX-1 inhibition assay (TLC, 14C-arachidonic acid); assay type: biochemical
T1 sequence (P05979 25-600): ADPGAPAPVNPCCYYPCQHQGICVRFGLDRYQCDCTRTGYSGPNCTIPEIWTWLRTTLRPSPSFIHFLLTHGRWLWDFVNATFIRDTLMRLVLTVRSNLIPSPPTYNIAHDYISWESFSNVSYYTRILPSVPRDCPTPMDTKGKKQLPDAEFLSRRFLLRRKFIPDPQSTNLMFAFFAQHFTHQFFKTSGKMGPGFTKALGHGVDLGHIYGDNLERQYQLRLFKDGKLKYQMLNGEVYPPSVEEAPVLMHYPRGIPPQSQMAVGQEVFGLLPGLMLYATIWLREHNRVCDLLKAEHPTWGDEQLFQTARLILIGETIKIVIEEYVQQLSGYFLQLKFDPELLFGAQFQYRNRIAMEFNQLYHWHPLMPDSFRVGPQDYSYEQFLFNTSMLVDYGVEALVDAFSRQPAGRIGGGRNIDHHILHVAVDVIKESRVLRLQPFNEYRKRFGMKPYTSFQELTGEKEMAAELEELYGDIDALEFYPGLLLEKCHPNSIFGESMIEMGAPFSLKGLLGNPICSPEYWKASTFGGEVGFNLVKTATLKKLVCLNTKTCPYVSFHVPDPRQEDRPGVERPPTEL
Procedure: The in vitro cyclooxygenase (ovine COX-1 or human COX-2) inhibitory activities of these probes were tested by a previously described TLC assay (FIGS. 19-21). Briefly, reaction mixtures of 200 μL consisted of hematin-reconstituted protein in 100 mM Tris-HCl, pH 8.0, 500 μM phenol, and [1-^14C]arachidonic acid (50 μM, about 55-57 mCi/mmol, Perkin Elmer).
Inhibition Assay Using Purified COX-1 and COX-2. Inhibition of purified ovine COX-1 or mouse COX-2 by test compounds was assayed by a previously described method, which quantifies the conversion of [1-^14C]arachidonic acid to [1-^14C]prostaglandin products. Reaction mixtures of 200 ∝L consisted of hematin-reconstituted protein in 100 mM Tris-HCl, pH 8.0, 500 μM phenol, and [1-^14C]arachidonic acid (50 μM, ˜55-57 mCi/mmol, Perkin Elmer). […] Reactions were terminated by solvent extraction in diethyl ether:methanol:1 M citrate buffer, pH 4.0 (30:4:1). The phases were separated by centrifugation at 2000 g for 2 min, and the organic phase was spotted on a thin-layer chromatography plate (EMD Kieselgel 60, VWR). The plate was developed in ethyl acetate:methylene chloride:glacial AcOH (75:25:1) at 4° C. Radiolabeled products were quantified with a radioactivity scanner (Bioscan, Inc., Washington, D.C.).

[1] = Fluorometry: extinction, quantum yield, fluorescence in DMSO/EtOH; assay type: physicochemical
Procedure: The TEMPO- and PROXYL-fluorocoxib probes are non-fluorescent (Φfl<0.3) in their non-trapped form, whereas fluorocoxib A or B are highly fluorescent (Φfl[…]) (FIG. 13). However, the absorbance and fluorescence of the TEMPO- and PROXYL-fluorocoxib probes increases in a time-dependent fashion when incubated in a DMSO/EtOH solution (FIGS. 14-15). Referring to FIG. 15, it is noted that at about 16 hours, fluorescence (ex 586 nm) read about 120,000 cps at 607 nm. Turning to FIG. 16, as compared to 5-ROX acid, which had extinction of 36/mM/cm at 580 nm and quantum yield of 0.94 at 604 nm, and fluorocoxib A, which had extinction of 45/mM/cm at 579 nm and quantum yield of 0.93 at 602 nm, fluorocoxib Q1 had extinction of less than 0.4/mM/cm at 586 nm and quantum yield of less than 0.36 at 607 nm. Without wishing to be bound by theory, it is believed that the time-dependent increase in fluorescence and measured fluorescence at 607 nm is the result of reduction/oxidation of fluorocoxib Q1 in the DMSO/EtOH solution (FIG. 16).
Fluorometry. Steady state fluorescence excitation and emission spectra were determined for each compound with a Spex 1681 Fluorolog spectrofluorometer, equipped with a 450 W xenon arc lamp. […]

1483 HNSCC cells = assay: Fluorescence microscopy of 1483 HNSCC cells; assay type: cell-based, human; conditions: 1483 cells, 0.5 h preincubation
Procedure: To test the specific activation of probes in cancer cells, compound 1 was incubated at selected time points (0.5, 1.0, 2.0, 3.0 h). After washout, the cells were imaged under fluorescence microscope.
Fluorescence microscopy of 1483 HNSCC cells. Fluorescence imaging of human 1483 HNSCC cells by compound 1 was performed by a previously described method. Briefly, human 1483 HNSCC cells were grown to 60% confluence. The cells were incubated in 2.0 ml Hank's balanced salt solution (HBSS)/Tyrode's with 200 nM compound 1 for 30 min at 37° C. The cells were then washed briefly three times and incubated in HBSS/Tyrode's for 30 min at 37° C. Following the required washout period, the cells were imaged in 2.0 ml fresh HBSS/Tyrode's on a Zeiss Axiovert 25 Microscope with the propidium iodide filter (0.5-1.0 sec exposure, gain of 2).

Compound	IC50 (ovine COX-1)	IC50 (ovine COX-1; high throughput screening of fluorocoxib and chemocoxib libraries, read-out: purified COX-1 IC50)	IC50 (ovine COX-1; purified ovine COX-1 (22.5 nM), inhibitor 20 min, then 1-14C-AA (50 μM) 37° C. 30 s, duplicates, read-out: oCOX-1 IC50)	extinction ([1]; at 580 nm (5-ROX acid), 579 nm (fluorocoxib A), 586 nm (fluorocoxib Q1))	quantum yield ([1]; at 604 nm (5-ROX acid), 602 nm (fluorocoxib A), 607 nm (fluorocoxib Q1))	intracellular fluorescence (1483 HNSCC cells)
COc1ccc2c(c1)c(CC(=O)NCCCCNC(=O)c1ccc(C3=c4cc5c6c(c4Oc4c3cc3c7c4CCCN7CCC3)CCC[N+]=6CCC5)c(C(=O)NC3CC(C)(C)N([O])C(C)(C)C3)c1)c(C)n2C(=O)c1ccc(Cl)cc1 [Compound 1]	> 25 µM	–	–	–	–	–
COc1ccc2c(c1)c(CC(=O)NCCCCNC(=O)c1ccc(C3=c4cc5c6c(c4Oc4c3cc3c7c4CCCN7CCC3)CCC[N+]=6CCC5)c(C(=O)[O-])c1)c(C)n2C(=O)c1ccc(Cl)cc1 [Fluorocoxib A, reference compound]	–	> 25 µM	> 25 µM	45 mM⁻¹ cm⁻¹	0.93	bright fluorescence
